Data published in PMC11476342 (Cancers, 2024).
Several values for one entry are separate records, joined by “and”; a condition that tells them apart may be missing. Identical values can stand only once. Like-named read-outs stand apart in the source and are kept apart here.

How the values were obtained:
[1] = tested on: T24; test: MTT cell viability assay; assay type: cell-based, human
Protocol: (§1) The cell viability for determination of IC50 values and synergism studies was analyzed by MTT assay as previously described. […] For preincubation experiments, 1600 c/w (cells per well) for J82 and 1200 c/w for J82 cisR were used. After the incubation time, 25 µL MTT (3-(4,5-dimethylthiazol-2-yl)-2,5-diphenyltetrazolium bromide, Serva, Heidelberg, Germany) solution (5 mg/mL in phosphate-buffered saline) was added. The formazan was dissolved in 75 µL DMSO, and the absorption was measured at 540 nm and 690 nm with a microplate reader (ThermoFisher Multiskan, Thermo Scientific, Wesel, Germany).

[2] = tested on: J82; test: MTT cell viability assay; assay type: cell-based, human
Protocol: as §1

[3] = tested on: J82 cisR; test: MTT cell viability assay; assay type: cell-based, human
Protocol: as §1

[4] = tested on: T24 LTT; test: MTT cell viability assay; assay type: cell-based, human
Protocol: as §1

[5] = tested on: HBLAK; test: MTT cell viability assay, non-cancer cell line; assay type: cell-based, human; conditions: for reduction of cell viability: entinostat and/or JQ1 in the absence of cisplatin (Figure 15a)
Protocol: as §1

[6] = tested on: HEK293; test: MTT cell viability assay, non-cancer cell line; assay type: cell-based, human; conditions: for reduction of cell viability: entinostat and/or JQ1 in the absence of cisplatin (Figure 15b,c)
Protocol: as §1

[7] = tested on: J82 cisR; test: RT-qPCR gene expression; assay type: cell-based, human; conditions: 48 h; ENT 0.316 µM; JQ1 0.1 µM; ENT + JQ1 0.316 + 0.1 µM
Source text: (§3) RNA was isolated using the RNeasy Mini Kit (Qiagen, Hilden, Germany). Subsequently, the RNA was transcribed into cDNA using the High-Capacity cDNA Reverse Transcription Kit (Thermo Scientific, Wesel, Germany). For an RT-PCR, GoTaq qPCR Master Mix (Promega, Fitchburg, WI, USA) and a CFX96 Real-Time System (BIO-RAD, Hercules, CA, USA) were used. The relative changes in gene expression were normalized to the control genes GUSB (beta-glucuronidase), TBP (TATA binding protein), and HPRT1 (hypoxanthine–guanine phosphoribosyltransferase) by Vandesompele method [54].

[8] = tested on: J82; test: RT-qPCR gene expression; assay type: cell-based, human; conditions: 48 h; ENT 0.316 µM; JQ1 1 µM; ENT + JQ1 0.316 + 1 µM
Source text: as §3

[9] = cited from earlier work; for bioavailability: OTX015: oral, in contrast to JQ1; for half-life: in vivo, OTX015 in contrast to JQ1
[10] = tested on: BRDs; set-up: method as in PMID 34582215; conditions: cited from earlier work
[11] = tested on: caspase 3/7; test: Activation of caspase 3/7 (CellEvent, high content screening); assay type: cell-based, human; conditions: single treatment, all four cell lines (J82, J82 cisR, T24, T24 LTT)
Protocol: Activation of caspase 3/7 was examined using the CellEvent Caspase-3/7 green detection reagent (Thermo Scientific, Wesel, Germany) according to the manufacturer’s instructions. The cells were seeded in 96-well-plates (Corning, Kaiserslautern, Germany) and treated with the indicated compounds for 48 h (J82 1600 c/w; J82 cisR 800 c/w; T24 1200 c/w; T24 LTT 3000 c/w). […] The supernatant was aspirated and a solution of CellEvent Caspase 3/7 green detection reagent (PBS, 1% heat inactivated fetal calf serum) was added to the cells for a final concentration of 2 µM. Hoechst 33342 (10 mg/mL in water, Sigma-Aldrich, Steinheim, Germany) was used for nuclei staining. The cells were incubated for 30 min at 37 °C and 5% CO2 before imaging by using the Thermo Fischer ArrayScan XTI high content screening (HCS) system with a 10 × magnification (Thermo Scientific, Wesel, Germany).

[12] = biological target: T1, HDAC 4 (Homo sapiens, UniProt P56524); test: Enzyme HDAC inhibition assay; assay type: biochemical; conditions: recombinant enzyme, Boc-Lys-(Tfa)-AMC; read-out: HDAC4 IC50 ± SD
T1 construct: purchased Reaction Biology Corp (Malvern, PA, USA) KDA-21-279
T1 sequence (P56524 whole entry): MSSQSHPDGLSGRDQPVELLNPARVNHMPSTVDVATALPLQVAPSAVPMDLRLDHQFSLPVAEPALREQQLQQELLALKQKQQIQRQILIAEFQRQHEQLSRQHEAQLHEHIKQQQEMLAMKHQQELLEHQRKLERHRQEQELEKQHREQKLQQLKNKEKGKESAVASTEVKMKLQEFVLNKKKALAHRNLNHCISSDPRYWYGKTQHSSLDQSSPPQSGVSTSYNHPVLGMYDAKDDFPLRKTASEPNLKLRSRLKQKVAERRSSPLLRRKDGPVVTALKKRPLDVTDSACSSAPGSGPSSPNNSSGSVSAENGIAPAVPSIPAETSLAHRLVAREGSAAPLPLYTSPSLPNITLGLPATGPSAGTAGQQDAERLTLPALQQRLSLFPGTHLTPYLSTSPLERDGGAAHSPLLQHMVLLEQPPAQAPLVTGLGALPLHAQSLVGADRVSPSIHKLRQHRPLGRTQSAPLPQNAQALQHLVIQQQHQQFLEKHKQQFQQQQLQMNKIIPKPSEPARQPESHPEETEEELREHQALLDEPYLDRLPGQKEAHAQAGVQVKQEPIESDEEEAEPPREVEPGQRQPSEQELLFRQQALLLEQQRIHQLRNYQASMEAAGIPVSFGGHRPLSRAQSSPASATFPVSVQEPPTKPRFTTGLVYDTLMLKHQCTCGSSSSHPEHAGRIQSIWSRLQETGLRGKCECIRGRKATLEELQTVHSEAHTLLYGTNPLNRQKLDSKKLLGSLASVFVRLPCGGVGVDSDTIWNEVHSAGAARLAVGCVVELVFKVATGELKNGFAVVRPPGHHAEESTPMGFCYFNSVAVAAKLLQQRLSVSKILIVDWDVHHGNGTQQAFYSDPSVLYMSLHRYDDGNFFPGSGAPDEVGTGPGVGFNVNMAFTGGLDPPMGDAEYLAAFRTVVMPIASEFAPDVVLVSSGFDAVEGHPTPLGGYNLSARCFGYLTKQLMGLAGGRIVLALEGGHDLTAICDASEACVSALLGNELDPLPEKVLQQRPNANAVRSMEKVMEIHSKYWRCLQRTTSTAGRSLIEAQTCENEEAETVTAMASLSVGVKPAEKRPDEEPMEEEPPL
Source text: (§2) The human recombinant enzymes were ordered from Reaction Biology Corp (Malvern, PA, USA).

[13] = biological target: T2, HDAC 8 (Homo sapiens, UniProt Q9BY41); test: Enzyme HDAC inhibition assay; assay type: biochemical; conditions: recombinant enzyme, Boc-Lys-(Tfa)-AMC; read-out: HDAC8 IC50 ± SD
T2 construct: purchased Reaction Biology Corp (Malvern, PA, USA) KDA-21-481
T2 sequence (Q9BY41 1-377): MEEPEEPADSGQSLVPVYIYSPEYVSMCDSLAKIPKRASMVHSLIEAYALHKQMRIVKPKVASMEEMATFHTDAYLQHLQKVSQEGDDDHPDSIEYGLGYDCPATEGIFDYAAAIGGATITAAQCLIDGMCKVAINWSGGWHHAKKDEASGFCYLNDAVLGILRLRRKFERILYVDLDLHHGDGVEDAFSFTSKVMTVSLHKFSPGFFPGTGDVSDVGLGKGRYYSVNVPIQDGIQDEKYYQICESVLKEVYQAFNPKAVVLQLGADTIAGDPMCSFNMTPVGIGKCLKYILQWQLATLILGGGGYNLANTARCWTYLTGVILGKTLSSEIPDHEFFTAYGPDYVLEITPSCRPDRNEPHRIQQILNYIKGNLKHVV
Source text: as §2

[14] = tested on: HDAC 1-3 and 6; set-up: method as in PMID 34582215; conditions: cited from earlier work
[15] = set-up: method as in PMID 33723398, PMID 29733771, PMID 27063977, PMID 27063978, PMID 26341814; conditions: patients; cited from earlier work
[16] = 72 h co-incubation with 0.316 µM ENT
[17] = MTT, 72 h, compound alone, listed as cisplatin, read-out: IC50 ± SD
[18] = MTT, 72 h, compound alone, read-out: IC50 ± SD
[19] = read-out: Cisplatin IC50 ± SD, control: untreated 48 h, then cisplatin 72 h
[20] = read-out: Cisplatin IC50 ± SD, control: untreated 48 h, then cisplatin 72 h, listed as cisplatin
[21] = read-out: Cisplatin IC50 ± SD, control, then cisplatin 72 h
[22] = Homo sapiens, T-24, MTT, 72 h, compound alone, read-out: IC50 ± SD
[23] = 48 h preincubation with the other inhibitor (ENT after 1 µM JQ1; JQ1 after 0.316 µM ENT), then another 72 h
[24] = 72 h co-incubation with the other epigenetic inhibitor: ENT with 1 µM JQ1, JQ1 with 0.316 µM ENT
[25] = Homo sapiens, J82, 72 h, MTT, 72 h, compound alone, read-out: IC50 ± SD
[26] = Homo sapiens, J82, control of the 48 h preincubation scheme, compound 72 h, read-out: IC50 ± SD
[27] = 48 h preincubation with the other inhibitor (ENT after 0.1 µM JQ1; JQ1 after 0.316 µM ENT), then another 72 h
[28] = 72 h co-incubation with the other epigenetic inhibitor: ENT with 0.1 µM JQ1, JQ1 with 0.316 µM ENT
[29] = Homo sapiens, 72 h, MTT, 72 h, compound alone, read-out: IC50 ± SD
[30] = Homo sapiens, control of the 48 h preincubation scheme, compound 72 h, read-out: IC50 ± SD
[31] = Homo sapiens, MTT, 72 h, compound alone, read-out: IC50 ± SD
[32] = Homo sapiens, HEK293, MTT, 72 h, compound alone, read-out: IC50 ± SD
[33] = 7.5 µM of 20, without cisplatin (Figure 10, S17)

N.N.[Cl][Pt][Cl] [Cisplatin, cisplatin]
SF ([1]; 72 h co-incubation with 0.3 µM JQ1): 1.88
SF [1, 16]: 1.02
SF ([1]; 72 h co-incubation with 0.316 µM ENT + 0.3 µM JQ1): 1.54
IC50 [1, 17]: 1.97 ± 0.06 µM
IC50 [1, 18]: 2.99 ± 0.12 µM
IC50 [1, 19]: 4.15 ± 0.12 µM
IC50 [1, 20]: 3.23 ± 0.1 µM
SF [2, 16]: 1.74
SF ([2]; 72 h co-incubation with 0.316 µM ENT + 1 µM JQ1): 3.05
SF ([2]; 72 h co-incubation with 1 µM JQ1): 1.90
IC50 [2, 17]: 2.49 ± 0.12 µM
IC50 [2, 18]: 1.87 ± 0.06 µM
IC50 [2, 19]: 2.16 µM and 3.02 µM
IC50 [2, 20]: 2.98 ± 0.21 µM
SF ([3]; 72 h co-incubation with 0.1 µM JQ1): 0.98
SF [3, 16]: 1.60
SF ([3]; 72 h co-incubation with 0.316 µM ENT + 0.1 µM JQ1): 1.56
cisplatin-resistance factor ([3]; J82 cisR vs J82): 3.8
IC50 [3, 17]: 6.17 ± 0.23 µM
IC50 [3, 18]: 7.16 ± 0.24 µM
IC50 [3, 19]: 8.49 µM and 7.8 µM
IC50 [3, 20]: 7.64 ± 0.38 µM
SF [4, 16]: 1.71
SF ([4]; 72 h co-incubation with 0.316 µM ENT + 0.075 µM JQ1): 1.55
IC50 [4, 17]: 65.3 ± 4.17 µM
IC50 [4, 18]: 72.2 ± 3.57 µM
cisplatin-resistance factor ([4]; T24 LTT vs T24): 24
IC50 [4, 19]: 75 ± 2.85 µM
IC50 [4, 20]: 58.7 ± 2.6 µM
IC50 [5, 18]: 1.71 ± 0.09 µM
IC50 [5, 21]: 3.38 ± 0.18 µM
IC50 [6, 18]: 3.36 ± 0.09 µM
IC50 [6, 21]: 6.26 ± 0.21 µM

Nc1ccccc1NC(=O)c1ccc(CNC(=O)OCc2cccnc2)cc1 [Entinostat, entinostat]
Bim gene expression, decadic logarithm of normalized expression [7]: -0.110
FOXO1 gene expression, decadic logarithm of normalized expression [7]: 0.087
FOXO3a gene expression, decadic logarithm of normalized expression [7]: -0.030
p21 gene expression, decadic logarithm of normalized expression [7]: 0.049
p53 gene expression, decadic logarithm of normalized expression [7]: -0.202
survivin gene expression, decadic logarithm of normalized expression [7]: -0.100
Bim gene expression, decadic logarithm of normalized expression [8]: -0.015
FOXO1 gene expression, decadic logarithm of normalized expression [8]: -0.054
FOXO3a gene expression, decadic logarithm of normalized expression [8]: -0.125
p53 gene expression, decadic logarithm of normalized expression [8]: -0.125
survivin gene expression, decadic logarithm of normalized expression [8]: -0.149
IC50 [1, 22]: 5.68 ± 0.51 µM
SF [2, 23]: 1.44
SF [2, 24]: 1.68
IC50 [2, 25]: 12.3 ± 1.08 µM
IC50 [2, 26]: 9.59 ± 0.81 µM
IC50 [2, 18]: 10.4 ± 0.89 µM
SF [3, 27]: 1.45
SF [3, 28]: 1.97
IC50 [3, 29]: 10.4 ± 0.94 µM
IC50 [3, 30]: 9.38 ± 0.89 µM
IC50 [3, 18]: 7.6 ± 0.59 µM
IC50 [4, 31]: 1.38 ± 0.1 µM
IC50 [5, 31]: 1.45 ± 0.18 µM
reduction of cell viability [5]: 60–65%
IC50 [6, 32]: 4.47 ± 0.77 µM
reduction of cell viability [6]: up to 20%

Cc1sc2c(c1C)C(c1ccc(Cl)cc1)=NC(CC(=O)OC(C)(C)C)c1nnc(C)n1-2 (stereo not drawn) [JQ1]
Bim gene expression, decadic logarithm of normalized expression [7]: 0.534
FOXO1 gene expression, decadic logarithm of normalized expression [7]: 0.410
FOXO3a gene expression, decadic logarithm of normalized expression [7]: 0.438
p21 gene expression, decadic logarithm of normalized expression [7]: 0.581
p53 gene expression, decadic logarithm of normalized expression [7]: 0.347
survivin gene expression, decadic logarithm of normalized expression [7]: 0.435
Bim gene expression, decadic logarithm of normalized expression [8]: 0.283
FOXO1 gene expression, decadic logarithm of normalized expression [8]: 0.260
FOXO3a gene expression, decadic logarithm of normalized expression [8]: 0.128
p21 gene expression, decadic logarithm of normalized expression [8]: 0.654
p53 gene expression, decadic logarithm of normalized expression [8]: -0.097
survivin gene expression, decadic logarithm of normalized expression [8]: -0.002
IC50 [1, 22]: 2.29 ± 0.42 µM
SF [2, 23]: 1.28
SF [2, 24]: 0.84
IC50 [2, 25]: 21.5 ± 4.05 µM
IC50 [2, 26]: 21.6 ± 4.99 µM
IC50 [2, 18]: 18.8 ± 1.55 µM
SF [3, 27]: 1.21
SF [3, 28]: 1.71
IC50 [3, 29]: 2.64 ± 0.52 µM
IC50 [3, 30]: 2.41 ± 0.51 µM
fold lower sensitivity of J82 than J82 cisR ([3]; MTT, 72 h): 8.4 fold
IC50 [3, 18]: 2.22 ± 0.41 µM
IC50 [4, 31]: 0.6 ± 0.08 µM
fold lower IC50 in T24 LTT than T24 ([4]; MTT, 72 h): 4 fold
IC50 ([5]; Homo sapiens, 72 h, read-out: IC50 ± SD): 2.37 ± 0.41 µM
reduction of cell viability [5]: 60–65%
IC50 [6, 32]: 1.41 ± 0.26 µM
reduction of cell viability [6]: up to 20%
bioavailability [9]: limited
half-life [9]: very short

CCc1c(C(=O)Nc2cc(/C=C/C(=O)NO)ccc2OC)[nH]c(C)c1C(C)=O [compound 20]
inhibitory activity to BRDs [10]: single-digit micromolar range
caspase 3/7 activation [11]: only weakly activated
IC50 [12]: 207 µM
IC50 [13]: 6.03 µM
inhibitory activity against HDAC 1-3 and 6 [14]: sub-micromolar
decrease in cell viability [1, 33]: 60–70%
IC50 [1, 22]: 6.95 ± 0.54 µM
decrease in cell viability [2, 33]: 60–70%
IC50 [2, 25]: 7.17 ± 0.57 µM
decrease in cell viability [3, 33]: 60–70%
IC50 [3, 29]: 7 ± 0.49 µM
decrease in cell viability [4, 33]: 60–70%
IC50 [4, 31]: 4.66 ± 0.41 µM

Cc1sc2c(c1C)C(c1ccc(Cl)cc1)=NC(CC(=O)NCCCN1CCN(C)CC1)c1nnc(C)n1-2 (stereo not drawn) [JQ35]
IC50 [2, 25]: 69.5 ± 7.88 µM
fold-increased IC50 value compared to JQ1 ([2]; J82, MTT, 72 h): 3.7 fold
IC50 [3, 29]: 1.49 ± 0.34 µM

Cc1sc2c(c1C)C(c1ccc(Cl)cc1)=N[C@@H](CC(=O)Nc1ccc(O)cc1)c1nnc(C)n1-2 [OTX015]
IC50 [2, 25]: 18.9 ± 2.82 µM
IC50 [3, 29]: 1.04 ± 0.13 µM
IC50 [6, 32]: 1.98 ± 0.42 µM
bioavailability [9]: better
half-life [9]: extended
dose-limiting toxicities [15]: anemia, thrombocytopenia, fatigue, and hyperbilirubinemia
